PMC8700777, “Identification of the EdcR Estrogen-Dependent Repressor in Caenibius tardaugens NBRC 16725: Construction of a Cellular Estradiol Biosensor” (Genes, 2021)
pEC50: −log10 of the molar value.

Legend:
[1] = tested on: EdcR (TetR-like repressor, EGO55_13520); assay: EdcR-dependent Pb-msf-gfp reporter de-repression in E. coli DH10B; type: cell-based, Escherichia coli DH10B
[2] = tested on: EdcR (TetR-like repressor, EGO55_13520); assay: EdcR-dependent Pb-msf-gfp reporter de-repression in E. coli DH10B (with RT-PCR in C. tardaugens ΔedcA); type: cell-based, Escherichia coli DH10B

Row | Structure (SMILES) | pEC50 [1] | pEC50 [2]
1 | C[C@]12CC[C@@H]3c4ccc(O)cc4CC[C@H]3[C@@H]1CC[C@@H]2O [E2, 17β-estradiol] | 5.48 | 
2 | C[C@]12CC[C@@H]3c4ccc(O)cc4CC[C@H]3[C@@H]1CCC2=O [E1, estrone] |  | 5.86
